Test results published in patent US10870647B2, “Imidazopyridine derivative, method for preparing same, and pharmaceutical composition containing same as active ingredient for preventing or treating cancer” (DAEGU-GYEONGBUK MEDICAL INNOVATION FOUNDATION, priority 2016, dated 2020).

Key:
[1] = biological target: T1, scanMAX Kinase assay panel (Homo sapiens, UniProt P36888, D835V); assay: Kinase selectivity, scanMAX Kinase assay panel (DiscoverX), % control at 1 uM; format: binding; settings: FLT3 (D835V); 1 uM; read-out: Percent Control (%)
T1 construct: purchased DiscoverX
T1 sequence (P36888 27-993 D835V): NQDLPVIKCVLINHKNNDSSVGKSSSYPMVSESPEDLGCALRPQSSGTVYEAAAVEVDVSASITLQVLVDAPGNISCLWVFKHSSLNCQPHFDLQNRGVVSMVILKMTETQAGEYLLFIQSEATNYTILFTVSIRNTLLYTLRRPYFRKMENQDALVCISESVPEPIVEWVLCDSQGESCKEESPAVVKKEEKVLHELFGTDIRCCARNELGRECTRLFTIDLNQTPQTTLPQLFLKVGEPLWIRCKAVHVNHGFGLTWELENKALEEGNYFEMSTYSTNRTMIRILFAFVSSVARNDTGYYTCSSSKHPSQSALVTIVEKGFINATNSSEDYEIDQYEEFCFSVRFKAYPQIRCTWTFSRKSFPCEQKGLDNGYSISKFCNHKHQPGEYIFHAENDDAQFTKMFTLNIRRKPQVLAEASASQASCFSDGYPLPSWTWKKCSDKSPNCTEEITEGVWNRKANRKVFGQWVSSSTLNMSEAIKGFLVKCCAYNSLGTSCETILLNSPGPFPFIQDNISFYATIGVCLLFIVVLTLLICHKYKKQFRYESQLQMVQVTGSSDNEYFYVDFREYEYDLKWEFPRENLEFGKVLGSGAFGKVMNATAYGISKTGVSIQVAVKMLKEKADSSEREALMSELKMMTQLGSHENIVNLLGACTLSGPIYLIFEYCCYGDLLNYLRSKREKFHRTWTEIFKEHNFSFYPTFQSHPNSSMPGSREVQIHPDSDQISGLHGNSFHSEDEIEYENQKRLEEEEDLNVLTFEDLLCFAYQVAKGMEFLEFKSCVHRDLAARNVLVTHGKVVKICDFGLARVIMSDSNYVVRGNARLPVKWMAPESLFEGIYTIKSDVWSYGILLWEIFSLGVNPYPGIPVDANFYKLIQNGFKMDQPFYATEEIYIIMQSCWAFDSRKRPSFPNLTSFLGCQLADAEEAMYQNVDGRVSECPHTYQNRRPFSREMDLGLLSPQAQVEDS
Procedure: (§1) The following experiment was performed to evaluate the inhibitory activity of the compound of the present invention on more enzymes.
(§2) Particularly, among the compounds of the present invention, the compounds of Example 1, Example 12 and Example 78 were selected and assigned to DiscoverX to measure the kinase selectivity. The experiment was performed by using scanMAX™ Kinase assay panel.
(§3) At this time, the concentration of the drug to be treated to the enzyme was adjusted to 1 uM in DMSO, and the control percentage (% control) was determined according to the following Equation 1. [Example Compound−Positive Control/Negative Control−Positive Control]×100 [Equation 1]
(§4) The enzyme selectivity of the compound of the present invention was judged to be active for the enzyme if the % control was <35 (i.e. less than 35%) for each enzyme.

[2] = biological target: T2, scanMAX Kinase assay panel (Homo sapiens, UniProt Q96J92); assay: as above; format: binding; settings: WNK4; 1 uM; read-out: Percent Control (%)
T2 construct: purchased DiscoverX
Procedure: as §1, §2, §3, §4

[3] = biological target: T3, scanMAX Kinase assay panel (Homo sapiens, UniProt Q9HAZ1); assay: as above; format: binding; settings: CLK4; 1 uM; read-out: Percent Control (%)
T3 construct: purchased DiscoverX
Procedure: as §1, §2, §3, §4

[4] = biological target: T4, scanMAX Kinase assay panel (Homo sapiens, UniProt Q9UIK4); assay: as above; format: binding; settings: DAPK2; 1 uM; read-out: Percent Control (%)
T4 construct: purchased DiscoverX
Procedure: as §1, §2, §3, §4

[5] = biological target: T5, scanMAX Kinase assay panel (Homo sapiens, UniProt Q9Y6E0); assay: as above; format: binding; settings: MST3; 1 uM; read-out: Percent Control (%)
T5 construct: purchased DiscoverX
Procedure: as §1, §2, §3, §4

GIST-T1/816 = assay: Cancer cell proliferation inhibition, cell viability after 72 hours; format: cell-based; settings: Homo sapiens, GISTT1, imatinib-resistant
Procedure, shortened: (§5)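 GIST-T1/816, GIST-430 and GIST-430/654 seeded at 2×10^4/100 μl; GIST-R3 (patient-derived, imatinib/sunitinib-resistant) likewise. Compounds added next day at 8 concentrations; viability after 72 hours by EZ-cytox or CellTiter-Glo, as % of vehicle-treated cells, IC50 from curves; two independent experiments.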

GIST-T1 = assay: as above; format: cell-based; settings: Homo sapiens, GISTT1, imatinib-sensitive
GIST430/654 = assay: as above; format: cell-based; settings: GIST-430/654, imatinib-resistant
Procedure, shortened: as §5

GIST430 = assay: as above; format: cell-based; settings: Homo sapiens, imatinib-sensitive
Procedure, shortened: as §5

T5 sequence (Q9Y6E0 whole entry): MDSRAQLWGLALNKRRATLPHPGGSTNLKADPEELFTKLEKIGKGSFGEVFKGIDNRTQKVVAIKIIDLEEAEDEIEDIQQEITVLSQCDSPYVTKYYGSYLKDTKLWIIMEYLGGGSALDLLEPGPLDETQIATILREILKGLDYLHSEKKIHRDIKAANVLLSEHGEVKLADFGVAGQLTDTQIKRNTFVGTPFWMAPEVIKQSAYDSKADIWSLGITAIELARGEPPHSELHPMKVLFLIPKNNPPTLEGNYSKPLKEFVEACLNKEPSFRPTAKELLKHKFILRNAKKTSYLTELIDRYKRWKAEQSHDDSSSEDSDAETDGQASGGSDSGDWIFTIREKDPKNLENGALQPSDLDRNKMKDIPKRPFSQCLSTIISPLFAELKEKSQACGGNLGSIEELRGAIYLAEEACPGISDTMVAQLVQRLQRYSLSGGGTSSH
T4 sequence (Q9UIK4 whole entry): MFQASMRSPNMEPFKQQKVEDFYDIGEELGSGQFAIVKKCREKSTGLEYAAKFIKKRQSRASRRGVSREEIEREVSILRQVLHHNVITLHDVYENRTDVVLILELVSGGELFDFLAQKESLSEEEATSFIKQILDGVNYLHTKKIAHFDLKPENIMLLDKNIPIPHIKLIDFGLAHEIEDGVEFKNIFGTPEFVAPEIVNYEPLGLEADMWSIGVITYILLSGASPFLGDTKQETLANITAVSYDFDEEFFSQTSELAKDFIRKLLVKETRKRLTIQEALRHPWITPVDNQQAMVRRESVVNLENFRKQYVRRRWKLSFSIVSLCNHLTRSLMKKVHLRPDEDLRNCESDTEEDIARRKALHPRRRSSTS
T3 sequence (Q9HAZ1 whole entry): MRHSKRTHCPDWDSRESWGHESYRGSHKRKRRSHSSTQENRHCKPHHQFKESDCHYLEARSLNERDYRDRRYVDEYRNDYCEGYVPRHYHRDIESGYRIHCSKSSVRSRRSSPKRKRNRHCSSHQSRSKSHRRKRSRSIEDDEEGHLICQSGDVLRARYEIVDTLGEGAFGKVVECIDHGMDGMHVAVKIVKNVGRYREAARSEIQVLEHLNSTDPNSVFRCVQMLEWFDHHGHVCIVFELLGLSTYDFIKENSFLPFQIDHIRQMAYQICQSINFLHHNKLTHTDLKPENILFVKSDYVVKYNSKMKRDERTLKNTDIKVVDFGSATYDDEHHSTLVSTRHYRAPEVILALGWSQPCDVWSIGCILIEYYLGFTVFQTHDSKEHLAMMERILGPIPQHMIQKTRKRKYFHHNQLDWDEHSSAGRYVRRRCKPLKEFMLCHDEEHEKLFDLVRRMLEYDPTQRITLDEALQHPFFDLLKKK
T2 sequence (Q96J92 whole entry): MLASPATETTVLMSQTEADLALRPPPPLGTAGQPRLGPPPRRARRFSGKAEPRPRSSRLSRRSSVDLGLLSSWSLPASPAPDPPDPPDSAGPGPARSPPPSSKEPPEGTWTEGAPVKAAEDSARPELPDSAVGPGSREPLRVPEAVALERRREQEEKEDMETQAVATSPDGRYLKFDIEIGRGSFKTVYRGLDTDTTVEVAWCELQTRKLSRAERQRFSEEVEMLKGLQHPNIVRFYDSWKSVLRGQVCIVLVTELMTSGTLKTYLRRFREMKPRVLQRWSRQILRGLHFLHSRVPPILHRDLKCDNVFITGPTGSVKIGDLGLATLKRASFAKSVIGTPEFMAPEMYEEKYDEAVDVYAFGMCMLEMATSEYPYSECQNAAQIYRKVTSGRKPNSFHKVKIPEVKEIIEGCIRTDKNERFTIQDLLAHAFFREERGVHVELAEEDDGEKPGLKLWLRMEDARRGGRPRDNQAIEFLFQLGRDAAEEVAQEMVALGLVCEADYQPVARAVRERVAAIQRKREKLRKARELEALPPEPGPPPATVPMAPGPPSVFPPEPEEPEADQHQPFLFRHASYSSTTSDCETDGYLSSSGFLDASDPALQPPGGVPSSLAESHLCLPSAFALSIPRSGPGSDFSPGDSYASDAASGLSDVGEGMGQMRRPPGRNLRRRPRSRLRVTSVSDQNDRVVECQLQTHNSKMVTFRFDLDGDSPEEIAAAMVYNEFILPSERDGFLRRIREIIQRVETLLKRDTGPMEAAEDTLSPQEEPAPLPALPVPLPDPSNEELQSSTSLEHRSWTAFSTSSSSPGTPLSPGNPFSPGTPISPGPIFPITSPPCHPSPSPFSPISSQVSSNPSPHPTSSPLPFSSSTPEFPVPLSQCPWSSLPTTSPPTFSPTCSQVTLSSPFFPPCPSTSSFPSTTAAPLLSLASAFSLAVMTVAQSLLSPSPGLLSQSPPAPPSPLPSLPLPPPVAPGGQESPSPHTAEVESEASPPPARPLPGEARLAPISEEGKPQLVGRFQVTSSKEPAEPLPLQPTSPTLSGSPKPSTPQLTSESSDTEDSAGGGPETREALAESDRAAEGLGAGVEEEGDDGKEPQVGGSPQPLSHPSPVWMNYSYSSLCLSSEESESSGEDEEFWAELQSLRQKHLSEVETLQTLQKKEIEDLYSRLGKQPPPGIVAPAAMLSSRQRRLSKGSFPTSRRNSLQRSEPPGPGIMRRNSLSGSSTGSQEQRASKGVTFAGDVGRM

SMILES | remaining binding at 1 µM [1] [%] | remaining binding at 1 µM [2] [%] | remaining binding at 1 µM [3] [%] | remaining binding at 1 µM [4] [%] | remaining binding at 1 µM [5] [%] | IC50 (GIST-T1/816) [nM] | IC50 (GIST-T1) [nM] | IC50 (GIST430/654) [nM] | IC50 (GIST430) [nM]
Cc1ccc(NC(=O)C2(C(=O)Nc3ccc(F)cc3)CC2)cc1C#Cc1cnc2c(Nc3cnn(C(C)C)c3)cccn12 [Example 78] | 87 | 100 | 100 | 100 | 100 |  |  |  | 
Cc1cn(-c2cc(NC(=O)c3ccc(C)c(C#Cc4cnc5c(Nc6cnn(C)c6)cccn45)c3)cc(C(F)(F)F)c2)cn1 [Example 12, 4-methyl-N-(3-(4-methyl-1H-imidazol-1-yl)-5-(trifluoromethyl)phenyl)-3-((8-((1-methyl-1H-pyrazol-4-yl)amino)imidazo[1,2-a]pyridin-3-yl)ethynyl)benzamide] | 27 | 100 | 100 | 97 | 86 | 308 | 12.3 | 564 | 56.3
Cc1ccc(C(=O)Nc2cccc(C(F)(F)F)c2)cc1C#Cc1cnc2c(Nc3cnn(C4CCNCC4)c3)cccn12 [Example 11, 4-methyl-3-((8-((1-(piperidin-4-yl)-1H-pyrazol-4-yl)amino)imidazo[1,2-a]pyridin-3-yl)ethynyl)-N-(3-(trifluoromethyl)phenyl)benzamide] |  |  |  |  |  | 40.7 | 0.8 | 560 | 63.6
Cc1ccc(C(=O)Nc2ccc(CN3CCN(C)CC3)c(C(F)(F)F)c2)cc1C#Cc1cnc2c(Nc3cnn(C)c3)cccn12 [Example 1, 4-methyl-3-((8-((1-methyl-1H-pyrazol-4-yl)amino)imidazo[1,2-a]pyridin-3-yl)ethynyl)-N-(4-((4-methylpiperazin-1-yl)methyl)-3-(trifluoromethyl)phenyl)benzamide] | 0 | 96 | 10 | 82 | 62 | 35.4 | 1.9 | 332 | 36.8
